Test results reported in patent publication US20110230481A2, “DERIVATIVES OF TETRABROMOBENZIMIDAZOLE, A PROCESS FOR THE PREPARATION THEREOF, A PHARMACEUTICAL COMPOSITION COMPRISING THE SAME, A METHOD OF USING THE SAME, A METHOD FOR MODULATING OR REGULATING SERINE/THREONINE KINASES, AND SERINE/THREONINE KINASES MODULATING AGENT” (SELVITA S.A., priority 2009, published 2011).

Assays:
Test in all cases: KINOMEscan Max
Assay type in all cases: binding
[1] = target: T1, RPS6KA5(Kin.Dom.2-C-terminal) (Homo sapiens, UniProt O75582)
T1 construct: RPS6KA5(Kin.Dom.2-C-terminal); DNA tag (qPCR read-out)
Method: (§1) Kinase panel profiling was performed at Ambit Kinomescan (http://www.ambitbio.com/technology/) using the “KINOMEscan™ Max” assay platform, a high-throughput method for screening small molecule compounds against large numbers of human kinases. KINOMEscan™ is based on a competition binding assay that quantitatively measures the ability of a compound to compete with an immobilized, active-site directed ligand. The assay is performed by combining three components: DNA-tagged kinase; immobilized ligand; and a test compound. The ability of the test compound to compete with the immobilized ligand is measured via quantitative PCR of the DNA tag. For a description of Ambit's assay protocol, see Fabian et al. A small molecule-kinase interaction map for clinical kinase inhibitors. Nat. Biotechnol. 23, 329-336 (2005).

RIPK4 = target: T2, RIPK4 (Homo sapiens, UniProt P57078)
T2 construct: DNA tag (qPCR read-out)
T2 sequence (P57078 whole entry): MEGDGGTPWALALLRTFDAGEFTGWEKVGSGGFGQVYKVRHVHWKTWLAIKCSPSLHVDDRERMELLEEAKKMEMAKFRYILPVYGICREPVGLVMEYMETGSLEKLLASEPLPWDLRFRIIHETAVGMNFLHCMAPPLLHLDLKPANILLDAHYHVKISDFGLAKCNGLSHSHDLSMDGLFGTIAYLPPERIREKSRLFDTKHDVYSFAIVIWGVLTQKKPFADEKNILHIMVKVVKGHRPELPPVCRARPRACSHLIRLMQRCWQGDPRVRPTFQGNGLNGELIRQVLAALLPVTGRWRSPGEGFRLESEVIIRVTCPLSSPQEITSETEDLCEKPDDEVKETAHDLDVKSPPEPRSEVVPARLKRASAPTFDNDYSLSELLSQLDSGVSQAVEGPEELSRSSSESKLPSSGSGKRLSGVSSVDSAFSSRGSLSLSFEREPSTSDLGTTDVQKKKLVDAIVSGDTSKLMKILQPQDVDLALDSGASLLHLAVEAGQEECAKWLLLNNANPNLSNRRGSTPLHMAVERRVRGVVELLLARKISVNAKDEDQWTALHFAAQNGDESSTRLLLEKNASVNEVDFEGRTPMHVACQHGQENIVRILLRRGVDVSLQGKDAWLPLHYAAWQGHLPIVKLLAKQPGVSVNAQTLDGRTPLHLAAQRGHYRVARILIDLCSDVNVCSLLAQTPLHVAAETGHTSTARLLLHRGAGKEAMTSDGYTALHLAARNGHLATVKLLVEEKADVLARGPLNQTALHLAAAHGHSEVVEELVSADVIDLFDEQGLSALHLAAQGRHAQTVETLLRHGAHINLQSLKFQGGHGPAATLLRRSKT
Method: as §1

IRAK3 = target: T3, IRAK3 (Homo sapiens, UniProt Q9Y616)
T3 construct: purchased Ambit (KINOMEscan Max service)
T3 sequence (Q9Y616 whole entry): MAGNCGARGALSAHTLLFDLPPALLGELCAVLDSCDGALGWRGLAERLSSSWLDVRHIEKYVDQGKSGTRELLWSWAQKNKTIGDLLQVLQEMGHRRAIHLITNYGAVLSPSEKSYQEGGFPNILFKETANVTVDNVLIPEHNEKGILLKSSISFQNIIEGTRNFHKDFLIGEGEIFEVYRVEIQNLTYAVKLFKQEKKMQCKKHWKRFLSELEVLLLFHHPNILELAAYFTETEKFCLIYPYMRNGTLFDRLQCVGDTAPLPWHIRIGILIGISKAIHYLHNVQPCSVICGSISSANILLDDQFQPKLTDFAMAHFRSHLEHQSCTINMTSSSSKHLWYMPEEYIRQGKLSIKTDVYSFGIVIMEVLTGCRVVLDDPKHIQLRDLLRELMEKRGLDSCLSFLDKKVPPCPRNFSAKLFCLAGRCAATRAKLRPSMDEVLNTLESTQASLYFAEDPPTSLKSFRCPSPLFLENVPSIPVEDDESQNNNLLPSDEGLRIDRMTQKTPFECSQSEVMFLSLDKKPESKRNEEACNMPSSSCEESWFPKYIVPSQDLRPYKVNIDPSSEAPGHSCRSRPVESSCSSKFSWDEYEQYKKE
Method: as §1

[2] = target: T4, RPS6KA4(Kin.Dom.2-C-terminal) (Homo sapiens, UniProt O75676)
T4 construct: RPS6KA4(Kin.Dom.2-C-terminal); purchased Ambit Kinomescan (contract screening)
T4 sequence (O75676 411-674 limits assumed): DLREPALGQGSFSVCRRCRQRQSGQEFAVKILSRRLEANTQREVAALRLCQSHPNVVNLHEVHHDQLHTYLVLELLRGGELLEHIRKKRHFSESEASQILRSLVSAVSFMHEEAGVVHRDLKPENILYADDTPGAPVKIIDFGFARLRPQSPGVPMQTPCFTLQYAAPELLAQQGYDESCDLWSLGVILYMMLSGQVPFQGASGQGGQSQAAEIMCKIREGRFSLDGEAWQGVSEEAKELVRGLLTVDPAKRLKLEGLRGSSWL
Method: as §1

HCK = target: T5, HCK (Homo sapiens, UniProt P08631)
T5 construct: purchased Ambit Kinomescan (contract screening)
Method: as §1

ERK3 = ERK3 (Homo sapiens, UniProt Q16659)
Method: as §1

FLT3 = target: T6, FLT3 (Homo sapiens, UniProt P36888)
T6 construct: purchased Ambit Kinomescan (contract panel, KINOMEscan Max)
Method: as §1

[3] = target: ABL1(H396P)-phosphorylated (Homo sapiens, UniProt P00519, H396P)
Method: as §1

PKMYT1 = PKMYT1 (Homo sapiens, UniProt Q99640); conditions: 1 μM
Method: as §1

PCTK2 = PCTK2 (Homo sapiens, UniProt Q00537)
Method: as §1

EIF2AK1 = target: T7, EIF2AK1 (Homo sapiens, UniProt Q9BQI3)
T7 construct: DNA tag (qPCR read-out)
Method: as §1

SBK1 = target: T8, SBK1 (Homo sapiens, UniProt Q52WX2)
T8 construct: purchased Ambit (KINOMEscan Max service)
T8 sequence (Q52WX2 whole entry): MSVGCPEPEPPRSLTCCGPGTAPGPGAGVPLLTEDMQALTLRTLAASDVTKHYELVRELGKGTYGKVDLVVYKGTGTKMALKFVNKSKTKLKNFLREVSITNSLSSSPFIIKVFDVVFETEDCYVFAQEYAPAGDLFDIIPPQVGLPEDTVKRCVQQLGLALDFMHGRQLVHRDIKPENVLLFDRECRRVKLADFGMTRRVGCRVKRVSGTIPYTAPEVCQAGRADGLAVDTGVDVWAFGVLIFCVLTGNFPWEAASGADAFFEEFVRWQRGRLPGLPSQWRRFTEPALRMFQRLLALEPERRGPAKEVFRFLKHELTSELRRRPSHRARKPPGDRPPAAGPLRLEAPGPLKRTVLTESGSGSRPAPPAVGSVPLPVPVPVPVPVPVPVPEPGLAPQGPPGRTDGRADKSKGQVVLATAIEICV
Method: as §1

PAK7 = target: T9, PAK7 (Homo sapiens, UniProt Q9P286)
T9 construct: DNA tag (qPCR read-out)
T9 sequence (Q9P286 whole entry): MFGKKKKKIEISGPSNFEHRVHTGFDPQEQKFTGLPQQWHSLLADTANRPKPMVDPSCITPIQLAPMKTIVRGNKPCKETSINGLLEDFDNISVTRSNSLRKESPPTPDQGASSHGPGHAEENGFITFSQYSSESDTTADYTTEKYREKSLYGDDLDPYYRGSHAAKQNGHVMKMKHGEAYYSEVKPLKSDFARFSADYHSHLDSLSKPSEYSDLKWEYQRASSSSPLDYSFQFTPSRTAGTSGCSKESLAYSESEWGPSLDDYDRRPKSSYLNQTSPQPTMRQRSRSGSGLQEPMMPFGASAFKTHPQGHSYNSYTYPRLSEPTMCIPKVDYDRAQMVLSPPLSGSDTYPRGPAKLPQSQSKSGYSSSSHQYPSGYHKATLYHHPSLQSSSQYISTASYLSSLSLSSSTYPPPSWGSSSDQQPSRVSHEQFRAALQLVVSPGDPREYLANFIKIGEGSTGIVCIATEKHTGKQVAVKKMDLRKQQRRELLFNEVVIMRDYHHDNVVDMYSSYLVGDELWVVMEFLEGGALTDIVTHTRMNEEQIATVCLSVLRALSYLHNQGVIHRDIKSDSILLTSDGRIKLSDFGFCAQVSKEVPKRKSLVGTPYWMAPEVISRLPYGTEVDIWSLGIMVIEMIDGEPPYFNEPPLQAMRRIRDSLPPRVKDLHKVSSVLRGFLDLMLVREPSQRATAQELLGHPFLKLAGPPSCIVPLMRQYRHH
Method: as §1

MAP3K2 = target: T10, MAP3K2 (Homo sapiens, UniProt Q9Y2U5)
T10 construct: purchased Ambit Kinomescan (contract panel)
Method: as §1

BMPR1B = target: T11, BMPR1B (Homo sapiens, UniProt O00238)
T11 construct: DNA tag (qPCR label); purchased Ambit Kinomescan (contract screening)
Method: as §1

[4] = target: ABL1(T315I)-phosphorylated (Homo sapiens, UniProt P00519, T315I)
Method: as §1

TRKB = TRKB (Homo sapiens, UniProt Q16620)
Method: as §1

ARK5 = target: T12, ARK5 (Homo sapiens, UniProt O60285); conditions: 1 μM
T12 construct: DNA tag (qPCR label); purchased Ambit Kinomescan (contract screening)
Method: as §1

ROS1 = target: T13, ROS1 (Homo sapiens, UniProt P08922)
T13 construct: DNA tag (qPCR read-out)
Method: as §1

HIPK2 = target: T14, HIPK2 (Homo sapiens, UniProt Q9H2X6)
T14 construct: DNA tag (qPCR read-out); purchased Ambit Kinomescan
Method: as §1

PAK1 = target: T15, PAK1 (Homo sapiens, UniProt Q13153)
T15 construct: DNA tag (qPCR read-out)
Method: as §1

CDK4-cyclinD3 = CDK4-cyclinD3 (Homo sapiens, UniProt P11802)
Method: as §1

MEK4 = target: T16, MEK4 (Homo sapiens, UniProt P45985)
T16 construct: purchased Ambit (KINOMEscan Max service)
Method: as §1

GCN2(Kin.Dom.S808G) = target: T17, GCN2(Kin.Dom.S808G) (Homo sapiens, UniProt Q9P2K8, S808G)
T17 construct: GCN2(Kin.Dom.S808G)
Method: as §1

EGFR(G719C) = target: T18, EGFR(G719C) (Homo sapiens, UniProt P00533, G719C); conditions: 1 μM
T18 construct: purchased Ambit (KINOMEscan Max panel service)
T18 sequence (P00533 25-1210 G719C): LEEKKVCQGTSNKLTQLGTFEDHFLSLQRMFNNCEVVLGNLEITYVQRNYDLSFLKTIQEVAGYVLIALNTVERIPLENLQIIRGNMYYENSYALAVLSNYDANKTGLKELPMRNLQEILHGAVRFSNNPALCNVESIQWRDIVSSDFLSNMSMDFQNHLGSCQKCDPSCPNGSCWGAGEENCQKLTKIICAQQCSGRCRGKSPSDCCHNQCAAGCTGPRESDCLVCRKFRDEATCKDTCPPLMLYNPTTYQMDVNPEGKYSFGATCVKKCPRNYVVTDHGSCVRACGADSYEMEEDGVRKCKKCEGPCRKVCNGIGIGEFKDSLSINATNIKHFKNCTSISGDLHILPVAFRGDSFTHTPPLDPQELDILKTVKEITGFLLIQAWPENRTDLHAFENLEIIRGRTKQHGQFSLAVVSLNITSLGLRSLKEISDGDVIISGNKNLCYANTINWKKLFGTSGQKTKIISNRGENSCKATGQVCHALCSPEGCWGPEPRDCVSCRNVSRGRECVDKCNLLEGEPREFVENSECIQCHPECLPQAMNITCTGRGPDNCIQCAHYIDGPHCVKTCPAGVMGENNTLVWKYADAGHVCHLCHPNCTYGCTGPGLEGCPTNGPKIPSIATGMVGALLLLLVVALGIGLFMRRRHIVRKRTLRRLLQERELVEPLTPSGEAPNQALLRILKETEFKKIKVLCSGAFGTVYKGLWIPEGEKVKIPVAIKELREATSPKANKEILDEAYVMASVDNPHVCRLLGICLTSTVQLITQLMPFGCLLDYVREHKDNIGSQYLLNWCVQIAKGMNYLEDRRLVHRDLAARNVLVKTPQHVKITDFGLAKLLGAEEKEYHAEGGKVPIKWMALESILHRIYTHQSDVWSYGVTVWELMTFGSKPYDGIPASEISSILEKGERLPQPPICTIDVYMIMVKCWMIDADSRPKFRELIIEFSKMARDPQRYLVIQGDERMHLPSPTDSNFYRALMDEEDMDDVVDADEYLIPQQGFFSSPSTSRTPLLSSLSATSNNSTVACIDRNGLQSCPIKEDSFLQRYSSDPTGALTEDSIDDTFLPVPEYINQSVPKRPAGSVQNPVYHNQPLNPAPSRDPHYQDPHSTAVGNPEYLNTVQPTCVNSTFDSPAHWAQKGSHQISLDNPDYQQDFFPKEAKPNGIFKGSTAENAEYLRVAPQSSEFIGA
Method: as §1

SRPK2 = target: T19, SRPK2 (Homo sapiens, UniProt P78362)
T19 construct: DNA tag (qPCR read-out)
Method: as §1

MAP4K5 = MAP4K5 (Homo sapiens, UniProt Q9Y4K4)
Method: as §1

MEK2 = MEK2 (Homo sapiens, UniProt P36507)
Method: as §1

FRK = target: T20, FRK (Homo sapiens, UniProt P42685)
T20 construct: purchased Ambit Kinomescan (contract panel, KINOMEscan Max)
Method: as §1

MARK4 = target: T21, MARK4 (Homo sapiens, UniProt Q96L34); conditions: 1 μM
T21 construct: purchased Ambit (KINOMEscan Max service)
Method: as §1

PDGFRB = PDGFRB (Homo sapiens, UniProt P09619)
Method: as §1

EPHB2 = target: T22, EPHB2 (Homo sapiens, UniProt P29323); conditions: 1 μM
T22 construct: purchased Ambit (KINOMEscan Max service)
T22 sequence (P29323 19-1055): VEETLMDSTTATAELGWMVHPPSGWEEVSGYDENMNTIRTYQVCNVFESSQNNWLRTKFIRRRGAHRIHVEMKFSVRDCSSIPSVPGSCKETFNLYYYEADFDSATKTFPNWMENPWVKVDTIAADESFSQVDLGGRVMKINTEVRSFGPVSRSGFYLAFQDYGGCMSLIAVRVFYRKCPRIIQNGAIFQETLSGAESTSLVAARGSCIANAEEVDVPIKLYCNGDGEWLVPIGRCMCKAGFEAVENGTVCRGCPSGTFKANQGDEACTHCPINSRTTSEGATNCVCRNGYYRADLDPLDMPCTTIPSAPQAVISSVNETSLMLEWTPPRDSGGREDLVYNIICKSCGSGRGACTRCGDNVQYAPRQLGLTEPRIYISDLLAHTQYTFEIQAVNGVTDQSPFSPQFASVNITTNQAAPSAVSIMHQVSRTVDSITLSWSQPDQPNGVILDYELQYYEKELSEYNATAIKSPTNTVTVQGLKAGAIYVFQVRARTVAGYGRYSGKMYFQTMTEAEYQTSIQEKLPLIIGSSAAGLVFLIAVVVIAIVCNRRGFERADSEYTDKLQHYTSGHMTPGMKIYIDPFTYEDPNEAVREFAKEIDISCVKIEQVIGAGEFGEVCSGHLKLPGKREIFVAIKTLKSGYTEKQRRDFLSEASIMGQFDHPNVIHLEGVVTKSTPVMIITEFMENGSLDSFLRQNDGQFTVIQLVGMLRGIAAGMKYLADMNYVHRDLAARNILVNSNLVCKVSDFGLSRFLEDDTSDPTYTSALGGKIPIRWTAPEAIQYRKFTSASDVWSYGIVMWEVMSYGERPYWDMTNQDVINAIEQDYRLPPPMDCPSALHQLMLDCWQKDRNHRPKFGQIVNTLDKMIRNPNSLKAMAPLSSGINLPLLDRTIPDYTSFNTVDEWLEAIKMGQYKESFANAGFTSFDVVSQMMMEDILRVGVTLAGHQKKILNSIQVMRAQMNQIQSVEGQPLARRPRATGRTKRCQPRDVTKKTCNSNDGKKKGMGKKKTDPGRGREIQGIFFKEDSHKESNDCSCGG
Method: as §1

SGK3 = target: T23, SGK3 (Homo sapiens, UniProt Q96BR1)
T23 construct: DNA tag (qPCR read-out)
Method: as §1

In the case of `NCCCNc1nc2c(Br)c(Br)c(Br)c(Br)c2[nH]1` [Compound 11, N-(3-aminopropyl)-4,5,6,7-tetrabromo-1H-benzo[d]imidazol-2-amine], the remaining binding at 1 µM [1] is reported as 100%, the remaining binding at 1 µM (RIPK4) is reported as 100% and the remaining binding at 1 µM (IRAK3) is reported as 86%. It also gave a remaining binding at 1 µM [2] of 97%, a remaining binding at 1 µM (HCK) of 98% and a remaining binding at 1 µM (ERK3) of 75%. For the same molecule, the remaining binding at 1 µM (FLT3) was 100%, the remaining binding at 1 µM [3] was 100% and the “% binding” value (PKMYT1) was 99%. It also gave a remaining binding at 1 µM (PCTK2) of 100%, a remaining binding at 1 µM (EIF2AK1) of 89% and a remaining binding at 1 µM (SBK1) of 59%. It also gave a remaining binding at 1 µM (PAK7) of 90%, a remaining binding at 1 µM (MAP3K2) of 100% and a remaining binding at 1 µM (BMPR1B) of 100%. The remaining binding at 1 µM [4] was 100%, the remaining binding at 1 µM (TRKB) was 92% and the “% binding” value (ARK5) was 100%. It also gave a remaining binding at 1 µM (ROS1) of 100%, a remaining binding at 1 µM (HIPK2) of 0.8% and a remaining binding at 1 µM (PAK1) of 91%. For the same molecule, the remaining binding at 1 µM (CDK4-cyclinD3) was 92%, the remaining binding at 1 µM (MEK4) was 82% and the remaining binding at 1 µM (GCN2(Kin.Dom.S808G)) was 95%. For the same molecule, the “% binding” value (EGFR(G719C)) was 100%, the remaining binding at 1 µM (SRPK2) was 100% and the remaining binding at 1 µM (MAP4K5) was 98%. The remaining binding at 1 µM (MEK2) was 100%, the remaining binding at 1 µM (FRK) was 100% and the “% binding” value (MARK4) was 84%. The remaining binding at 1 µM (PDGFRB) was 80%, the “% binding” value (EPHB2) was 72% and the remaining binding at 1 µM (SGK3) was 100%.
